Results taken from paper PMC10706763, “Molecular and Functional Characterization of Pheromone Binding Protein 2 from Cyrtotrachelus buqueti (Coleoptera: Curculionidae)” (International Journal of Molecular Sciences, 2023).
Entries after “also recorded” stand apart in the source; their conditions may differ.

Columns and labels:
CbuqPBP1 = tested on: CbuqPBP1; set-up: method as in doi:10.1111/phen.12209; conditions: cited from earlier work
[1] = tested on: antennae of male C. buqueti adults; test: EAG assays after RNAi of CbuqPBP2; type: in vivo, Cyrtotrachelus buqueti; conditions: 72 h after dsRNA injection; chemical at 100 μg/μL in n-hexane
Method: To evaluate the function of CbuqPBP2 in C. buqueti olfaction, the dsRNA-injected, RNase-free water-injected, or non-injected male adults were subjected to EAG (Syntech, Hilversum, Netherlands) at 72 h after injection. Based on the results of the fluorescence competition binding assay, the chemicals (dibutyl phthalate, ethyl hexanoate, styrene and linalool) that bound with CbuqPBP2 were selected for electrophysiological experiments. The tested chemicals were diluted in n-hexane to prepare a solution at a concentration of 100 μg/μL, and n-hexane was used as a blank control.
The antenna for EAG detection was cut off and amputated at the base and tip. The basal and distal ends of the excised antenna were linked to a reference electrode and recording electrode by one teardrop of Spectra R360 electrically conductive gel, respectively. A filter paper strip (2 cm × 0.5 cm) loaded with ten microliters of each chemical solution was inserted into the sample tube (10 cm in length) as a stimuli source. An air-stimulus controller (CS-05 model) was used to deliver the stimulus. The stimulation time was 0.5 s, and the interval for antennal recovery was 30 s. The response of the antenna to each chemical was detected using a high-impedance amplifier (IDAC2) and analyzed using the EAG software (version 2.0) supplied with the instrument. The chemicals were tested randomly for each antenna. The antenna was stimulated one time with n-hexane before and after each chemical stimulation. Three to six antennae were measured for each chemical in independent experiments, and each antenna was tested three times. EAG responses were recorded in mV, and the relative EAG response of each chemical was calculated by using the following formula: Relative EAG response=EAGA/EAGCK1+EAGCK2/2 where EAG(A) represents the EAG response to the chemical; EAGCK1 and EAKCK2 represent EAG responses to n-hexane before and after each chemical stimulation, respectively.

[2] = tested on: virgin males of C. buqueti; set-up: method as in earlier work; conditions: compared with mated males and virgin females; cited from earlier work
CbuqPBP2 = CbuqPBP2 (Cyrtotrachelus buqueti, UniProt A0A1L3KPR5); test: Fluorescence competitive binding assay with 1-NPN probe; conditions: increasing ligand concentration, Figure 4C,D
Method: The fluorescent probe 1-NPN and the tested chemicals with a purity of at least more than 96% were purchased from Aladdin Biochemical Technology Co., LTD. (Shanghai, China). The fluorescence binding assay was carried out on a Lumina fluorescence spectrophotometer (Thermo Fisher Scientific, MA, USA) using a 1 cm light path quartz cuvette at 25 °C. All the slit widths for both excitation and emission were 5 nm. The 1-NPN and all the compounds tested were dissolved in chromatography-grade methanol to a final concentration of 1 mM. The CbuqPBP2 protein was dissolved in 50 mM Tris–HCl buffer at pH 7.4 to a final concentration of 2 μM. […] The scanning range was 350–550 nm at each concentration, and the maximum fluorescence intensities were plotted against the free ligand concentration.

CbuqPBP2, sequence (A0A1L3KPR5 entry or part of it): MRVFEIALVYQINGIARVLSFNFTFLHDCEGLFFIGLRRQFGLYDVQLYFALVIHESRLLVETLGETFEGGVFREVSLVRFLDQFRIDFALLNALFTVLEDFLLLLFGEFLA

Compound: CCCCOC(=O)c1ccccc1C(=O)OCCCC [Dibutyl phthalate]
- binding affinity of CbuqPBP1 (CbuqPBP1): strongest binding affinity
- EAG response of dsCbuqPBP2-treated male adults versus water-injected and non-injected controls [1]: significantly reduced
- attraction effect [2]: more significant attraction effect

Compound: CCCCCC(=O)OCC [Ethyl hexanoate]
- EAG response of dsCbuqPBP2-treated male adults versus water-injected and non-injected controls [1]: did not significantly decrease

Compound: c1ccc2[nH]ccc2c1 [Indole]
- fluorescence intensity in competitive binding curve (CbuqPBP2): the fluorescence intensity enhanced as the ligand concentration increased

Compound: C=CC(C)(O)CCC=C(C)C (stereo not drawn) [Linalool]
- EAG response of dsCbuqPBP2-treated male adults versus water-injected and non-injected controls [1]: not significantly reduced; also recorded: did not influence the EAG response

Compound: CC(C)=CCC/C(C)=C/CC/C(C)=C/CC/C=C(\C)CC/C=C(\C)CCC=C(C)C [Squalene]
- fluorescence intensity in competitive binding curve (CbuqPBP2): the fluorescence intensity enhanced as the ligand concentration increased

Compound: C=Cc1ccccc1 [Styrene]
- binding affinity of CbuqPBP1 (CbuqPBP1): lower binding affinity
- EAG response of dsCbuqPBP2-treated male adults versus water-injected and non-injected controls [1]: significantly reduced
